Reference: US9133208B2, “Radiolabelled rotenone derivatives and their use in SPECT imaging” (priority 2011, dated 2015)

Assays:
[1] = Ex vivo biodistribution in Sprague-Dawley rats; conditions: 2 hr p.i.
Method: An amount of 0.5 mL of a 2.4 mCi/mL mixture of compounds 6-9 (Mixture A: composition comprising isomeric mixture of 12% 6 and 7 diastereomers; 88% 8 and 9 diastereomers) in 7% ethanol was diluted with 0.58 mL of 10 mM sodium acetate, pH 6.5 and 0.023 mL of 95% ethanol, to produce a 1.1 mL of a 1.1 mCi/mL solution having a value of pH of about 5. An amount of 0.8 mL of this solution (0.9 mCi) was injected through the tail veins of 14 Sprague-Dawley rats. Six of the rats were used to assess biodistribution of the mixture of compounds 6-9 after two hours, and the remaining eight rats were used to determine the biodistribution of the compounds after 24 hours. Selected organs were collected and weighed and the activity was measured for each organ with a gamma well counter using the detection range of 138-207 keV, and the measured values of activity were decay-corrected to the time of injection. The values of percentage of injected dose per gram of tissue (% ID/g) were calculated by taking the ratio of the activity in the organ over the total activity injected per gram of tissue. Uptake in the heart of the rat was confirmed by the SPECT/CT images shown in FIG. 5, in which the heart is well defined.
A biodistribution study was conducted according to the method described above using purified fractions of the mixture of isomers 6-9 (Mixture A).
FIGS. 3B-3E show HPLC chromatograms of the four separate fractions used in the biodistribution study: Fraction 1: fraction comprising 100% of Component A*; Fraction 2: fraction comprising an isomeric mixture comprising 15.2% Component A* and 84.8% Component B*; Fraction 3: fraction comprising an isomeric mixture comprising 4.4% Component A*, 4.4% Component B* and 91.2% Component C*; Fraction 4: fraction comprising an isomeric mixture comprising 1.5% Component A*, 0.8% Component B* and 97.7% Component D*.

[2] = Literature isolated perfused heart data of Marshall et al. 2001
Source text: A slower myocardial exit is beneficial for clinical diagnostic imaging since this permits the physician to gather images over a longer period of time thereby increasing image resolution, sensitivity and quality.
Marshall et al. report slopes of 0.29 and 0.78 for the fitted linear lines to the maximal uptake data for ^99mTc-sestamibi and ^125I-rotenone, respectively. The slopes of the fitted lines to the data for ^99mTc-sestamibi and the isomers of Mixture A shown in FIG. 10 of the present application are 0.33 and 0.86, respectively. The value of the ratio of the slopes of the fitted lines for ^125I-rotenone and ^99mTc-sestamibi from Marshall et al. is 2.69, while the value of the ratio of the slopes of the fitted lines for Mixture A and ^99mTc-sestamibi shown in FIG. 10 is 2.61. […] A linear uptake of tracer with increasing flow is especially desired in a clinical setting since in patients, deficiencies in myocardial perfusion are almost exclusively detected at higher blood flow rates, i.e. during a stress test by comparison of low (ischemic) and high flow (normal) areas.

[3] = compared with FIG. 9; cited from earlier work
rabbit hearts = test: Myocardial distribution in isolated retrograde perfused (Langendorff) rabbit heart; parameters: species or system New Zealand White rabbits; conditions: for fractional appearance rates at later time points / initial peak fractional venous appearance rate: flow rate 1.7 ml/min/g LV, FIG. 9, qualitative
Method: Preparation of retrograde perfusion (Langendorff) was performed as previously described (R. C. Marshall, P. Powers-Risius, B. W. Reutter, S. E. Taylor, H. F. VanBrocklin, R. H. Huesman, T. F. Budinger J Nucl Med. 2001; 42:272-281, which is incorporated by reference herein) using hearts from 1.5-2.5 kg male New Zealand White rabbits (Charles River, Wilmington Mass.). Following an injection of heparin (5 mg/kg) and median sternotomy, hearts were excised keeping the ascending aorta and aortic branches, lungs and thymus intact. The hearts were immediately placed into an ice-cold bath containing modified Tyrode's solution ([…], 1 mM MgCl2, 28 mM NaHCO3, 0.44 mM NaH2PO4, 2.5 mM CaCl2, 6 mM KCl, 5 mM glucose, […] with 22 g/L BSA and aerated with 95% O2/5% CO2) and thymus and fatty tissue were quickly removed. The hearts were then suspended on an aortic cannula and perfused with pre-warmed modified Tyrode's buffer through a water jacketed, temperature regulated Langendorff perfusion system (Radnotti, Calif., USA) at a constant flow rate. Total time for suspension onto the Langendorff apparatus was typically 60 seconds or less. Following suspension on the aortic cannula, the remaining lung, trachea and extraneous tissues were removed.
Fluid from Thebesian circulation was drained via a polyethylene catheterized apical drain. A fluid filled latex ballon connected to a pressure transducer (Radnotti) was inserted into the left ventrical via the left atrium and mitral valve. Following excision of the right atrium, a pacing electrode (Radnotti) was placed at the level of the atria to allow controlled pacing of the heart.
Following final preparation, the left ventricular balloon was inflated to achieve an end-diastolic pressure of approximately 8-10 mmHg with a constant systolic pressure held between 60-80 mm Hg. The heart was continually perfused with modified Tyrode's solution warmed to 38° C. and was held in an enclosed chamber to maintain humidity and temperature. The heart was paced with a Grass SD9 stimulator (Harvard Apparatus, Montreal QC) at 180 beats per minute with a stimulus of 4 V delivered over 4 ms. Perfusion and ventricular pressures were monitored throughout the experiment using a BioPac data acquisition system (BioPac, Montreal QC).
Radioactivity from all samples were counted in a gamma counter and data was analyzed using Matlab software. […] Maximal uptake values were determined for ^99mTc-sestamibi and Mixture A at varying flow rates (0.35-3.1 ml/min/g LV wet weight).

dog heart [4] = conditions: representative dog, critical LAD stenosis, intravenous adenosine; cited from earlier work
dog heart [5] = test: Literature tracer uptake vs microsphere flow in dog with critical LAD stenosis (Broisat et al., Glover et al.); type: in vivo
Source text: The slope of a non-linear fitted line to the ^123I-ZIROT data shown in FIG. 3 of Broisat et al. is −3.59.

rat cardiomyocytes = test: Cell uptake (internalization) assay with labeled rotenone derivatives; type: cell-based; conditions: 0.5 μCi tracer, time points up to 5 min
Method: An internalization assay was used to test the in vitro function of candidate perfusion tracers. In this assay, cultures of rat cardiomyocytes were plated at a density of 3-5×10^5 cells/mL into 24-well tissue culture plates. The cardiomyocytes were then incubated with 0.5 μCi of radiolabeled tracer ^99mTc-tetrofosmin (Myoview™) or [^123I] iodinated rotenone (mixture containing isomers 6-9) mixed in cell culture medium (DMEM) and incubated for up to five minutes. At different time points, the total supernatant was collected, the cells were washed twice with PBS and then exposed and lysed with 1 M NaOH for 15 min. Samples were counted in a gamma well counter and the cellular protein was determined for the lysed samples. The data was analyzed to represent the total “internalized” fraction expressed as cpm per total protein (FIG. 4).

pig heart = test: Uptake of radiotracers as a function of myocardial blood flow (MBF) in pig heart; type: in vivo; conditions: for myocardial flow rate at which uptake begins to level off (roll off): two hours after injection, stress and induced ischemic conditions
Source text: The tissue and blood samples were weighed and measured using a gamma well counter to determine the amount of gamma radiation emitted by the I-123 radiolabel of the radio-iodinated tracers of the present invention. The measured gamma radiation in each segment represents the combined amount of gamma radiation emitted by the tracers in that segment during the resting and stressed states of the heart. The counts and the weights of the samples were also used to calculate the percentage of injected dose per gram of tissue (% ID/g). After the I-123 in the blood and tissue samples had completely decayed, both the tissue and the blood were dried in an oven at 70° C. for 48-72 h, the samples were sent for neutron activation and the gamma radiation emitted by each of the resulting radioactive [^198Au]gold-containing microspheres and [^153Sm]samarium-containing microspheres, which were embedded in the samples, were measured. Polar maps of the resting and stressed states of the isolated heart of the pig were generated using MATLAB™ to assemble the gamma measurement results in all the transected segments from the bottom (apex) to the top (AV groove) of the pig heart.
The myocardial blood flow (MBF) that was present in the tissue samples during the resting and stressed states was determined from the total amount of gamma radiation emitted from each of the radioactive gold and samarium microspheres, respectively, in the isolated transections of the heart of the pig and the dried blood sample according to the following equation: MBF=[(Reference blood sample withdrawal rate (4 mL/min)/(Weight of myocardial sample (g)]×[Isotope count (myocardial sample)/Isotope counts (reference blood sample)].
FIG. 8 illustrates a plot of uptake (percent of injected dose per gram of tissue; % ID/g) of the radiotracer compounds of the present invention as a function of the myocardial blood flow in the pig heart under stress and induced ischemic conditions as determined using the marked microspheres.

[6] = flow rates 0.35-3.1 ml/min/g LV wet weight

For COc1cc2c(cc1OC)[C@@H]1C(=O)c3ccc4c(c3O[C@@H]1CO2)C[C@H](C(C)([123I])CO)O4 (single isomer, unassigned) [B*], the Heart [1] was “slightly lower”, the Heart/Liver ratio [1] was “relatively higher” and the Intestine [1] was “significantly higher than others”. The Liver [1] was “much lower”.

For COc1cc2c(cc1OC)C1C(=O)c3ccc4c(c3OC1CO2)CC(/C(C)=C\[125I])O4 (stereo not shown) [^125I-rotenone, 7′-Z-[^125I]iodorotenone], the “ratio of the slopes of the fitted lines vs ^99mTc-sestamibi (Marshall et al.)” value [2] is given as 2.69 and the “venous effluent rate at the later portions of the curve (FIG. 1 of Marshall et al.)” value [3] is given as “higher venous effluent rate relative to the isomers of Mixture A”.

With [201Tl] [^201Tl, ^201Thallium] the “fractional appearance rates at later time points” value (rabbit hearts) was “higher fractional appearance rates” and the “initial peak fractional venous appearance rate” value (rabbit hearts) was “lower fractional venous appearance rates”.

For COc1cc2c(cc1OC)C1C(=O)c3ccc4c(c3OC1CO2)CC(/C(C)=C\[123I])O4 (stereo not shown) [^123I-ZIROT, 7-(Z)-[^123I]iodorotenone], the “slope of non-linear fitted line, uptake vs microsphere flow (FIG. 3 of Broisat et al.)” value (dog heart [4]) is given as −3.59 and the “ratio of slope (Broisat et al.) to standardized ^99mTc-Sestamibi slope (Glover et al.)” value (dog heart [5]; dog literature data) is given as 2.5.

In the case of “Technetium (^99mTc) tetrofosmin [^99mTc-tetrofosmin]”, the “cellular internalization over time (cpm per total protein)” value (rat cardiomyocytes) is reported as “evident at 15 s but a gradual increase was seen up to 5 min” and the “myocardial flow rate at which uptake begins to level off (roll off)” value (pig heart) is reported as 2 mL/min/g.

For [C-]#[N+]CC(C)(C)OC.[C-]#[N+]CC(C)(C)OC.[C-]#[N+]CC(C)(C)OC.[C-]#[N+]CC(C)(C)OC.[C-]#[N+]CC(C)(C)OC.[C-]#[N+]CC(C)(C)OC.[Tc] [^99mTc-sestamibi], the “slope of non-linear fitted line, activity (% normal) vs microsphere flow (FIG. 4 of Glover et al.)” value (dog heart [4]) is listed as −143, the “fractional appearance rates at later time points” value (rabbit hearts) is listed as “higher fractional appearance rates” and the “initial peak fractional venous appearance rate” value (rabbit hearts) is listed as “lower fractional venous appearance rates”. The “intercept of linear regression, maximum net uptake vs flow” value (rabbit hearts; [6]) was 0.14, the “slope of linear regression, maximum net uptake vs flow (FIG. 10)” value (rabbit hearts; [6]) was 0.33 and the “standardized slope (Glover et al. slope divided by 100)” value (dog heart [5]; representative dog, critical LAD stenosis, intravenous adenosine) was −1.43. For the same compound, the “slope of the non-linear fitted line, uptake (% ID/g) vs MBF (FIG. 8)” value (pig heart; pig hearts) was −1.21 and the “myocardial flow rate at which uptake begins to level off (roll off)” value (pig heart) was 1.5 mL/min/g.

Compound COc1cc2c(cc1OC)[C@@H]1C(=O)c3ccc4c(c3O[C@@H]1CO2)C[C@H](C(C)([123I])CO)O4 (single isomer, unassigned) [Fraction 1] has a Blood [1] of 0.191 ± 0.040 % ID/g, a Brain [1] of 0.063 ± 0.013 % ID/g and a Femur [1] of 0.239 ± 0.083 % ID/g. The Heart [1] was 1.617 ± 0.335 % ID/g, the Heart/Blood ratio [1] was 8.46 ± 0.51 and the Heart/Liver ratio [1] was 1.20 ± 0.35. It also gave a Heart/Lung ratio [1] of 4.54 ± 0.59, an Intestine [1] of 0.787 ± 0.186 % ID/g and a Kidney [1] of 0.634 ± 0.099 % ID/g. The Liver [1] was 1.363 ± 0.101 % ID/g, the Lung [1] was 0.357 ± 0.059 % ID/g and the Muscle [1] was 0.369 ± 0.117 % ID/g. The Spleen [1] was 0.177 ± 0.031 % ID/g, the Stomach [1] was 1.628 ± 0.837 % ID/g and the Testis [1] was 0.128 ± 0.017 % ID/g. The Thyroid [1] was 0.826 ± 0.191 % ID/g and the Urine [1] was 0.528 ± 0.134 % ID/g.
